Test results: paper PMC7508583, “Discovery and Preclinical Development of Antigiardiasis Fumagillol Derivatives” (Antimicrobial Agents and Chemotherapy, 2020)
Where two headings read alike, the source gives them in different places.

Tests used:
human MetAP2 = target: T1, human MetAP2 (Homo sapiens, UniProt P50579); assay: MetAP2 fluorescence assay; assay type: biochemical; conditions: for IC50 of compound/IC50 of fumagillin: human MetAP2
T1 construct: purchased Bio-Techne/R&D Systems
Method: Based on the available crystal structures of MetAP2 complexes, the fumagillol core binds in a crowded environment, forming exquisite electrostatic interactions. Therefore, there is little room for the core fumagillol scaffold to adopt a different mode of binding. In contrast, the R group at C-6 can vary substantially because it is mostly solvent exposed. The L groups bind in a narrow site at the active-site entrance.
Recombinant human MetAP2 (Bio-Techne/R&D Systems) was diluted to 10 μg/ml in the assay buffer (50 mM HEPES, 0.1 mM CoCl2, 100 mM NaCl, pH 7.5). The substrate H-Met-Gly-Pro-7-amido-4-methylcoumarin (Bio-Techne/R&D Systems) was diluted to 500 μM with 2 μg/ml of the coupling enzyme, recombinant human dipeptidyl peptidase 4 (Bio-Techne/R&D Systems), in assay buffer. Fifty microliters of 10-μg/ml recombinant human MetAP2 was loaded into a flat-bottom black 96-well plate (Greiner Bio), and the reaction was initiated by adding 50 μl of the substrate/dipeptidyl peptidase 4 mixture. The reaction mixture was incubated at room temperature for 10 min, and the fluorescence was measured for 5 min at excitation and emission wavelengths of 380 nm and 460 nm, respectively, in the kinetic mode. For IC50 determination, 0.5 μl inhibitor solution was added to the reaction mixture. […] The reaction rates were fitted to a 4-parameter logistic nonlinear regression model using the KaleidaGraph tool, yielding the IC50 values and standard error.

in vitro = conditions: human; for efflux ratio at 120 min, 10 µM: Caco-2, pH 7.4; for Papp at 120 min, 10 µM: Caco-2, pH 7.4, Mean ± SE Papp
Source text: Next, we tested the permeation of the compounds across polarized Caco-2 cell monolayers, a method that is widely used as an in vitro model of the human small intestinal mucosa to predict the absorption of orally administered drugs ([63], [64]). With noninvasive intestinal infections, there is no need to establish a high plasma concentration. Since a high rate of uptake through the host gut lining could increase compound toxicity, we sought to reduce gut absorption. […] Both apical-to-basal and basal-to-apical permeation values were measured to obtain information about efflux. […] The efflux machinery is currently unknown.
Passage 36 Caco-2 cells were used. The cells were cultured in Dulbecco’s modified Eagle’s medium (DMEM; 5 ml of 100 mM sodium pyruvate, 5 ml of 100× nonessential amino acids, 5 ml of penicillin-streptomycin, and 100 ml of heat-inactivated fetal bovine serum added to 385 ml of DMEM aseptically and mixed thoroughly), pH 7.4, at 37°C in 5% CO2. DMEM (250 μl) was added to the basal compartment of 96-well multiscreen Caco-2 cell plate consisting of high-pore-density polycarbonate (Millipore) with a 0.4-μm pore size and a 0.11-cm^2 active membrane area. The cells were seeded at a density of 12,000 cells/well (0.16 × 10^6 cells/ml) in the apical wells, with one well containing only medium as blank. The Caco-2 cell plate was placed in a CO2 incubator at 37°C for cell proliferation. On the day of assay, the medium was removed, washed twice with Hanks balanced salt solution (HBSS) buffer supplemented with 2% bovine serum albumin (BSA), pH 7.4, and incubated with the HBSS buffer for 30 min at 37°C. Wells with transepithelial electrical resistance values of greater than 230 Ω · cm^2 were selected for the experiments. […] The assay was performed in duplicate.
Seventy-five microliters of the test compounds was added to the apical wells, and 250 μl of HBSS buffer with 2% BSA was added to the basal wells. The plate was incubated in a CO2 incubator with shaking on a plate shaker at 150 rpm for 120 min, after which 25 μl of the basal samples was collected and processed.
Two hundred fifty microliters of test compounds was added to the basal wells, and 75 μl of HBSS buffer with 2% BSA was added to the apical wells. The plate was incubated in a CO2 incubator with shaking on a plate shaker at 150 rpm for 120 min, after which 25 μl of the apical samples was collected and processed.
For sample processing, a single-point calibration curve in HBSS buffer with 2% BSA was used. Donor samples were diluted 1:1 with HBSS containing 2% BSA, and receiver samples were diluted with 1:1 HBSS buffer and precipitated with 200 μl of acetonitrile containing internal standard. The samples were vortexed for 5 min at 1,000 rpm and centrifuged at 4,000 rpm for 10 min. One hundred microliters of the supernatant was diluted with 200 μl of water and analyzed by LC-MS/MS (with a Shimadzu ultrafast liquid chromatograph and an API 4000 LC-MS/MS system).
The apparent permeation coefficients (Papp) were calculated as Papp = (dQ/dT) × (1/C0) × (1/A), where dQ is the amount permeated to the receiver compartment of the 96-well plate, dT is the time of compound incubation, C0 is the initial compound concentration in the donor compartment of the well, and A is the surface area of the monolayer.

pH 3 degradation test = assay type: physicochemical
Method: The dramatic improvement in stability is not surprising, because the ester group of fumagillin is susceptible to hydrolysis at low pH. […] This should enable the administration of lower doses, reducing toxicity risks.
For accelerated temperature degradation tests at 75% relative humidity and at laboratory uncontrolled relative humidity, fumagillin and compounds 3 and 9 were incubated at 37°C under either controlled or uncontrolled humidity, and the samples were analyzed by HPLC every week for 4 weeks. Measurements were made in duplicate. Area-under-the-curve values were calculated to derive the percentage of compound remaining. For pH degradation, the compounds were dissolved in DMSO and mixed with pH 3.0 buffer. The samples were incubated at 25°C for up to 48 h. Samples were analyzed by HPLC every 2 h for the first 8 h and then after 24 and 48 h.

[1] = recombinant human MetAP2, fluorescence assay, read-out: Mean ± SE IC50, inhibition of human MetAP2

T1 sequence (P50579 whole entry): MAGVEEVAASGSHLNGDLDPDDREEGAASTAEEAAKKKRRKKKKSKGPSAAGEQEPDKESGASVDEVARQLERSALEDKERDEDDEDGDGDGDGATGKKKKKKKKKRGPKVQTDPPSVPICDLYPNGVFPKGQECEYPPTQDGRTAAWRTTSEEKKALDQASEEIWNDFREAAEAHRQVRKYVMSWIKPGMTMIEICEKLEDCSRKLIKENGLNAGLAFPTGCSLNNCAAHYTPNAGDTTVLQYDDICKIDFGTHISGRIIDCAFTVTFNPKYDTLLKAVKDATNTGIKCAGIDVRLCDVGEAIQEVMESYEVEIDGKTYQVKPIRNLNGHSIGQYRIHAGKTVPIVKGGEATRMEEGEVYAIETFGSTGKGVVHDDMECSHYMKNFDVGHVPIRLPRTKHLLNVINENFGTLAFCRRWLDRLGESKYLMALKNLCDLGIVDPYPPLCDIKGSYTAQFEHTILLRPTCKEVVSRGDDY

## COC1C(OC(=O)NC(=O)CN2CCOCC2)CCC2(CO2)C1C1(C)OC1CC=C(C)C (stereo not shown) [Compound 3]
Human MetAP2
  IC50 of compound/IC50 of fumagillin: 1.68
Human MetAP2; [1]
  IC50: 0.67 ± 0.02 nM
In vitro
  efflux ratio at 120 min, 10 µM: 1.95
In vitro; apical to basal
  Papp at 120 min, 10 µM: 15.8 ± 0.94 ×10⁻⁶ cm/s
In vitro; basal to apical
  Papp at 120 min, 10 µM: 30.4 ± 4.35 ×10⁻⁶ cm/s
pH 3 degradation test; buffer, pH 3
  half-life: 17.2 ± 2.26 h

## CO[C@@H]1[C@H](OC(=O)Nc2ccc(C(=O)O)cc2)CC[C@]2(CO2)[C@H]1[C@@]1(C)O[C@@H]1CC=C(C)C [Compound 9, 4-(((((3R,4S,5S,6R)-5-methoxy-4-((2R,3R)-2-methyl-3-(3-methylbut-2-en-1-yl)oxiran-2-yl)-1-oxaspiro[2.5]octan-6-yl)oxy)carbonyl)amino)benzoic acid]
Human MetAP2
  IC50: 1.1 ± 0.3 nM
In vitro; apical to basal
  Papp at 120 min, 10 µM: 12.6 ± 0.63 ×10⁻⁶ cm/s
In vitro; basal to apical
  Papp at 120 min, 10 µM: 23.6 ± 8.14 ×10⁻⁶ cm/s
pH 3 degradation test; buffer, pH 3
  half-life: 43.2 ± 1.45 h

## CO[C@@H]1[C@H](OC(=O)/C=C/C=C/C=C/C=C/C(=O)O)CC[C@]2(CO2)[C@H]1[C@@]1(C)O[C@@H]1CC=C(C)C [Fumagillin, reference compound]
Human MetAP2
  IC50 of compound/IC50 of fumagillin: 1
Human MetAP2; [1]
  IC50: 0.4 ± 0.03 nM
In vitro
  efflux ratio at 120 min, 10 µM: 2.13
In vitro; apical to basal, Caco-2, 10 μM, 120 min
  Papp at 120 min, 10 µM: 23.7 ± 2.52 ×10⁻⁶ cm/s
In vitro; basal to apical, Caco-2, 10 μM, 120 min
  Papp at 120 min, 10 µM: 48.8 ± 9.13 ×10⁻⁶ cm/s
pH 3 degradation test; pH 3.0 buffer, pH 3, 25°C, read-out: Mean ± SE half-life at pH 3 and 25°C (converted)
  half-life: 1.42 ± 0.05 h
